Converted amounts (≈) assume the structure as drawn. Where two headings read alike, the source gives them in different places.
Columns and labels:
Hep3B [1] = conditions: from Kogure et al. 2004; cited from earlier work
HepG2 [2] = assay: Literature IC50 in HepG2 (Kogure et al.); format: cell-based, human; conditions: ratio of literature IC50 values (Kogure et al.)
Procedure: In addition, the IC50 values of 5-FU and cisplatin in the Hep3B and HepG2 cell lines were obtained from Kogure et al., Cancer Chemother. Pharmacol., 53(4):296-304 (2004). The ratios of IC50 values of sodium trans-[tetrachlorobis(1H-indazole)ruthenate(III)] in a cell line sensitive to one of the other drugs and a cell line insensitive to the same drug were calculated. The results are shown in Tables 1-5 below (“Test Drug” in the tables denotes sodium trans-[tetrachlorobis(1H-indazole)ruthenate(III)]). […] As such, sodium trans-[tetrachlorobis(1H-indazole)ruthenate(III)] is potentially effective in treating hepatocellular carcinoma resistant to such other drugs.

HepG2 [3] = conditions: from Kogure et al. 2004; cited from earlier work
Hep3B [4] = assay: MTT cytotoxicity assay, Hep3B cell line; format: cell-based, human
Procedure: (§1) To test the activities of sodium trans-[tetrachlorobis(1H-indazole)ruthenate(III)] (“drug”), MTT assays were performed using selected hepatocellular carcinoma cell lines. Cells were plated (2×10^3 cells in 100 μl/well) in 96-well plates and allowed to recover for 24 hours. The drug was added in another 100 μl growth medium and incubated with cultured cells for 3 hours before the cell culture medium was replaced to remove the drug. Cell death was measured 72 hours after the initial incubation by MTT assay following the manufacturer's recommendations (EZ4U, Biomedica, Vienna, Austria).
(§2) In addition, the IC50 values of 5-FU and cisplatin in the Hep3B and HepG2 cell lines were obtained from Kogure et al., Cancer Chemother. Pharmacol., 53(4):296-304 (2004). The ratios of IC50 values of sodium trans-[tetrachlorobis(1H-indazole)ruthenate(III)] in a cell line sensitive to one of the other drugs and a cell line insensitive to the same drug were calculated.

HepG2 [5] = assay: MTT cytotoxicity assay, HepG2 cell line; format: cell-based, human; conditions: for IC50: HepG2; for IC50 Ratio (HepG2/Hep3B): IC50 in HepG2 divided by IC50 in Hep3B
Procedure: as §1, §2

HCC2 = assay: MTT cytotoxicity assay, HCC2 cell line; format: cell-based, human; conditions: for IC50: HCC2, MTT; for IC50 Ratio (HCC2/HCC3): IC50 in HCC2 divided by IC50 in HCC3
Procedure: as §1, §2

HCC3 = assay: MTT cytotoxicity assay, HCC3 cell line; format: cell-based, human; conditions: for IC50: HCC3, MTT at 72 h; for IC50 Ratio (HCC3/B1): IC50 in HCC3 divided by IC50 in B1
Procedure: as §1, §2

Hep3B cells [6] = conditions: for increase in life span: versus control group (33 days)
Procedure: Separately, the activity of sodium trans-[tetrachlorobis(1H-indazole)ruthenate(III)] against Hep3B cells was evaluated in xenograft experiments using female SCID mice as compared to the standard therapy sorafenib. Sodium trans-[tetrachlorobis(1H-indazole)ruthenate(III)] was administered IV at 30 mg/kg once a week for two weeks. Sorafenib was administered P.O. at 25 mg/kg daily five times a week for two weeks.

hepatocellular carcinoma = conditions: late stage HCC patients with well preserved liver function; cited from earlier work
B1 = assay: MTT cytotoxicity assay, B1 cell line; format: cell-based, human
Procedure: as §1, §2

[7] = tested on: colon cancer cell line SW480; conditions: Kapitza et al. 2005; cited from earlier work
Hep3B cells [8] = assay: Apoptosis induction, DAPI staining of nuclear morphology; format: cell-based, human; conditions: 24 hours of drug treatment
Procedure: To evaluate the mechanisms underlying the drug activity, apoptosis induction as well as impact on cell cycle distribution and proliferation of Hep3B cells were evaluated (FIG. 2). Specifically, the hepatoma cell line Hep3B was purchased from American Type Culture Collection (ATCC), Manassas, Va. All cells were grown in RPMI 1640 supplemented with 10% FCS. Cultures were regularly checked for Mycoplasma contamination. After 24 hours of drug treatment, cells were harvested, washed in PBS and cytospins were prepared. After fixation with a 1:1 methanol/acetone solution, slides were stained with 4′,6-diamidino-2-phenylindole (DAPI) containing antifade solution (Vector Laboratories, Inc., USA). Nuclear morphology of cells was examined using a Laica DMRXA fluorescence microscope (Laica Mikroskopie and System, Wetzlar, Germany) equipped with appropriate epifluorescence filters and a COHU charge-douples device camera. Duplicate slides were prepared for each cell type/treatment group and 300-500 cells were counted for each sample.
Treatment with sodium trans-[tetrachlorobis(1H-indazole)ruthenate(III)] led to typical morphological signs of programmed cell death like cell shrinkage, chromatin condensation and formation of apoptotic bodies. […]

Hep3B cells [9] = assay: DNA synthesis rate by 3H-thymidine incorporation; format: cell-based, human
[10] = tested on: hepatocellular carcinoma cell lines; assay: MTT cytotoxicity assay, mean over selected hepatocellular carcinoma cell lines; format: cell-based, human; conditions: mean over tested HCC cell lines, after 72 hours
Procedure: as §1

[11] = tested on: colon cancer cell line HT29; conditions: Kapitza et al. 2005; cited from earlier work
Hep3B cells [12] = assay: Mitochondrial membrane depolarization, JC-1 staining and FACS; format: cell-based, human
PARP = PARP cleavage by Western blot; format: cell-based, human; conditions: 24 hours of drug treatment
Procedure: Treatment with sodium trans-[tetrachlorobis(1H-indazole)ruthenate(III)] led to typical morphological signs of programmed cell death like cell shrinkage, chromatin condensation and formation of apoptotic bodies. Apoptotic cell death induced by sodium trans-[tetrachlorobis(1H-indazole)ruthenate(III)] was further characterized by PARP cleavage examined by Western Blot Analyses. Specifically, after 24 hours of drug treatment, protein extracts were prepared and Western blot analyses performed. Rabbit Anti-PARP from Apoptosis Sampler kit (Cell Signaling Technology, Beverly, Mass.) (dilution 1:1000)[…]) was used. For loading control β-actin monoclonal mouse AC-15 (Sigma, USA, dilution: 1:1000) was used. All secondary peroxidase-labeled antibodies were purchased from Santa Cruz Biotechnology and used at working dilution of 1:10000.

[13] = tested on: stress kinase P38 and extracellular signal-regulated kinase (ERK); assay: Phosphorylation of P38 and ERK; format: cell-based, human; conditions: 24 hours of treatment
HCC1.2 = assay: MTT cytotoxicity assay, HCC1.2 cell line; format: cell-based, human; conditions: 3 h drug incubation, MTT at 72 h
Procedure: as §1

Hep3B cells [14] = assay: Cell cycle distribution, PI staining and FACS; format: cell-based, human; conditions: 24 hours of treatment, PI staining, FACS
[15] = Hep3B xenograft, female SCID mice

SMILES | IC50 (Hep3B [1]) | IC50 Ratio (HepG2/Hep3B) (HepG2 [2]) | IC50 (HepG2 [3]) | IC50 Ratio (HepG2/Hep3B) (HepG2 [5]) | IC50 (HCC2) | IC50 Ratio (HCC2/HCC3) (HCC2) | IC50 (HCC3) | mean survival (Hep3B cells [6]; [15]) | increase in life span (Hep3B cells [6]; Hep3B xenograft) | IC50 Ratio (HCC3/B1) (HCC3) | other results
O=c1[nH]cc(F)c(=O)[nH]1 [5-FU] | 227 µg/mL (≈ 1750 µM) | >5.2 | 17.2 µg/mL (≈ 132 µM) | – | – | – | – | – | – | – | –
N.N.[Cl][Pt][Cl] [Cisplatin, cisplatin] | 3.75 µg/mL | >5.2 | 19.4 µg/mL | – | – | – | – | – | – | – | –
COc1cccc2c1C(=O)c1c(O)c3c(c(O)c1C2=O)C[C@@](O)(C(=O)CO)C[C@@H]3O[C@H]1C[C@H](N)[C@H](O)[C@H](C)O1 [Doxorubicin, doxorubicin, reference compound] | – | – | – | >3.6 | – | – | – | – | – | – | IC50 (Hep3B [4]; Homo sapiens): 0.0693 µM; IC50 (HepG2 [5]; Homo sapiens): > 0.25 µM
O=C1[O][Pt]2([NH][C@@H]3CCCC[C@H]3[NH]2)[O]C1=O [Oxaliplatin, oxaliplatin, reference compound] | – | – | – | – | 4.05 µM | >9.9 | 0.41 µM | – | – | – | –
CNC(=O)c1cc(Oc2ccc(NC(=O)Nc3ccc(Cl)c(C(F)(F)F)c3)cc2)ccn1 [Sorafenib, sorafenib, reference compound] | – | – | – | – | – | – | – | 60 days | 1.9 fold | >12.5 | added lifespan (hepatocellular carcinoma): two; IC50 (B1; Homo sapiens): 0.8 µM; IC50 (HCC3; Homo sapiens): > 10 µM
[Cl][Ru-]([Cl])([Cl])[Cl].[Na+].c1ccc2[nH]ncc2c1.c1ccc2[nH]ncc2c1 [sodium trans-[tetrachlorobis(1H-indazole)ruthenate(III)]] | – | – | – | 1.1 | 129 µM | 1.9 | 67.5 µM | 80 days | 2.4 fold | 0.8 | killing of tumor cells [7]: effective in killing tumor cells; tumor growth (Hep3B cells [6]; Hep3B xenograft, female SCID mice, IV 30 mg/kg once a week for two weeks): effectively suppressed the growth of tumor; tolerability (Hep3B cells [6]; female SCID mice, IV 30 mg/kg once a week for two weeks): well tolerated; IC50 (Hep3B [4]; MTT): 167 µM; apoptosis induction (Hep3B cells [8]): significant apoptosis; DNA synthesis rate (Hep3B cells [9]): significantly reduce DNA synthesis rate; IC50 [10]: 124 µM; IC50 (B1): 83.4 µM; killing of tumor cells [11]: effective in killing tumor cells; cells with mitochondrial membrane depolarization (Hep3B cells [12]): increase of cells with mitochondrial membrane depolarization; PARP cleavage (PARP): PARP cleavage induced; phosphorylation of P38 and ERK [13]: strong phosphorylation; IC50 (HepG2 [5]; MTT): 189 µM; IC50 (HCC1.2): 62.9 µM; cell cycle distribution (Hep3B cells [14]): increase of cells in G2/M phase

Source: patent US20130331368A1, “METHOD OF TREATING HEPATOCELLULAR CARCINOMA” (Niiki Pharma Acquisition Corp. 2, priority 2011, published 2013)
